Experimental findings from US20090214507A1, “METHOD OF TREATING PREVENTING, INHIBITING OR REDUCING DAMAGE TO CARDIAC TISSUE” (RegeneRx Biopharmaceuticals, Inc., priority 2004, published 2009) are described below.

The test system of one experiment is ILK / Akt. Kind of experiment: ILK localization, expression and activation (immunocytochemistry, Western). In kind it is cell-based. As to the method:
Because recruitment of ILK to the focal adhesion complex is important for its activation, the effects of thymosin β4 on ILK localization and expression were assayed. […] Because thymosin β4 sequesters the pool of G-actin monomers, the effects on ILK activation were dependent on thymosin β4's role in regulating the balance between polymerized F-actin and monomeric G-actin were tested.

In experiment [1] the test system is myocardial infarction in adult mice. Put plainly: myocardial infarction by coronary artery ligation, echocardiography and histology. In kind it is in vivo, mouse. As to the method: Because of thymosin β4's effects on survival and migration of cardiomyocytes cultured in vitro and phosphorylation of Akt, it was tested whether thymosin β4 might aid in cardiac repair in vivo after myocardial damage. Myocardial infarctions in fifty-eight adult mice were created by coronary artery ligation and treated half with systemic, intracardiac, or systemic plus intracardiac thymosin β4 immediately after ligation and the other half with PBS. Intracardiac injections were done with collagen (control) or collagen mixed with thymosin β4. All forty-five mice that survived two weeks later were interrogated for cardiac function by random-blind ultrasonography at 2 and 4 weeks after infarction by multiple measurements of cardiac contraction. […] Control cardiac injections were performed with the same collagen vehicle making it unlikely that an endogenous reaction to the injection contributed to the cardiac recovery.
To determine the manner in which […] improved cardiac function, multiple serial histologic sections of hearts treated with or without thymosin β4 were examined. […] TUNEL positive cells that were also myocytes were rare in the thymosin β4 group but abundant in the control hearts. […] Thus, the decreased scar volume and preserved function of thymosin β4 treated mice were likely due to early preservation of myocardium after infarction through thymosin β4's effects on survival of cardiomyocytes.
Embryonic or adult cardiac tissue was embedded in paraffin and sections used for immunohistochemistry. […] Adult hearts were sectioned at ten equivalent levels from the base of the heart to the apex. Serial sections were used for trichrome sections and reaction with sarcomeric a-actinin, c-kit, Sca-1, Abcg2, and BrdU antibodies and for TUNEL assay (Intergen Company #S7111).
Myocardial infarction was produced in fifty-eight male C57BL/6J mice at 16 weeks of age (25-30 g) by ligation of the left anterior descending coronary artery as previously described. Twenty-nine of the ligated mice received thymosin β4 treatment immediately following ligation and the remaining twenty-nine received PBS injections. Treatment was given intracardiac with thymosin β4 (200 ng in 10 ul collagen) or with 10 ul of collagen; intraperitoneally with thymosin β4 (150 μg in 300 μl PBS) or with […]; or by both intracardiac and intraperitoneal injections. Intraperitoneal injections were given every three days until mice were sacrificed. Doses were based on previous studies of thymosin β4 biodistribution. Hearts were removed, weighed and fixed for histologic sectioning. Additional mice were operated on in a similar fashion for studies 0.5, 1, 3, 6 and 11 days after ligation.
Echocardiograms to assess systolic function were performed using M-mode and 2-dimensional measurements as described previously. The measurements represented the average of six selected cardiac cycles from at least two separate scans performed in random-blind fashion with papillary muscles used as a point of reference for consistency in level of scan. End diastole was defined as the maximal left ventricle (LV) diastolic dimension and end systole was defined as the peak of posterior wall motion. Single outliers in each group were omitted for statistical analysis. Fractional shortening (FS), a surrogate of systolic function, was calculated from LV dimensions as follows: FS=EDD−ESD/EDD×100%. Ejection fraction (EF) was calculated from two-dimensional images. EDD, end diastolic dimension; ESD, end systolic dimension.
Scar volume was calculated using six sections through the heart of each mouse using Openlab 3.03 software (Improvision) similar to previously described. Percent area of collagen deposition was measured on each section in blinded fashion and averaged for each mouse.

[2] abbreviates: four weeks after infarction, versus control.

For the substance thymosin β4, in the experiment on ILK / Akt (C2C12 cells), the “ILK protein levels (Western analysis)” value was “modest increase” and the “total Akt protein” value is “unchanged”. In addition, the “phosphorylation of Akt (serine 473)” value in the experiment on ILK / Akt (C2C12 cells, phospho-specific antibody) is “increased phosphorylation”. For the same substance, in the experiment on ILK / Akt (embryonic heart explants or C2C12 myoblasts, 10 ng/100 ul synthetic protein or expressing plasmid), the “ILK detection by immunocytochemistry” value was “markedly enhanced around the cell edges”. Also, the “cardiac dilation after infarction (EDD and ESD)” value in experiment [1] (EDD and ESD significantly higher in control group) was “decreased cardiac dilation”. Besides, in experiment [1] (four weeks after infarction, n=23, 95% confidence interval, control 28.2), the mean ejection fraction is 57.7+/−3.2%. For the same substance, in experiment [1] (four weeks after infarction, n=23, 95% confidence intervals, control 23.2), the “mean left ventricle fractional shortening” value was 37.2+/−1.8%. Also, in experiment [1] (setting [2]), the “improvement in cardiac fractional shortening” value is reported as “greater than 60%” and the “improvement in ejection fraction” value is listed as more than 100%. Also, the “degree of improvement, systemic (intraperitoneal) versus local intracardiac administration” value in experiment [1] (mouse, in vivo, ip) is reported as “not statistically different”. In addition, the scar volume result in experiment [1] (six levels of sections through left ventricle, subset of mice, p<0.05) was “significant reduction”. Besides, the “left ventricle fractional shortening” value in experiment [1] (three days after infarction, intracardiac treatment, n=4, 95% confidence interval, control 28.8) was 39.2+/−2.34%. Besides, in experiment [1] (three days after infarction, intracardiac treatment, control 44.7), the ejection fraction is 64.2+/−6.69%. Also, in experiment [1] (three levels of section, all treated mice), the “size of scar (trichrome stain)” value is “reduced”. The “cardiomyocyte proliferation or death” value in experiment [1] (three, six, eleven or fourteen days after coronary ligation) is reported as “did not detect significant cardiomyocyte proliferation or death”. In addition, in experiment [1] (treated versus untreated hearts), the “number of c-kit, Sca-1 or Abcg2 positive cardiomyocytes” value is given as “no detection of any differences”. The “cardiomyocyte cell death by TUNEL assay” value in experiment [1] (twenty-four hours after ligation) was “striking decrease in cell death”.
